Converted amounts (≈) assume the structure as drawn. The source made the active and inactive calls. No cut-off for these calls is given here.
Tests used:
Assay type in all cases: functional
Staphylococcus aureus [1] = assay: Antibacterial activity against Staphylococcus aureus 29737 assessed as growth inhibition at MIC after 24 hr by agar dilution method
Micrococcus luteus [2] = assay: Antibacterial activity against Micrococcus luteus ATCC 9341 assessed as growth inhibition at MIC after 24 hr by agar dilution method
Escherichia coli [3] = assay: Antibacterial activity against Escherichia coli 319 assessed as growth inhibition at MIC after 24 hr by agar dilution method
Klebsiella pneumoniae [4] = assay: Antibacterial activity against Klebsiella pneumoniae J/I/4 assessed as growth inhibition after 24 hr by agar dilution method
Vibrio cholerae [5] = assay: Antibacterial activity against Vibrio cholerae 759 assessed as growth inhibition at MIC after 24 hr by agar dilution method
Aspergillus niger [6] = assay: Antifungal activity against Aspergillus niger assessed as growth inhibition after 96 hr by agar dilution method
Staphylococcus aureus [7] = assay: Antibacterial activity against Staphylococcus aureus 29737 assessed as growth inhibition after 24 hr by agar dilution method
Candida albicans [8] = assay: Antifungal activity against Candida albicans assessed as growth inhibition after 96 hr by agar dilution method
Candida tropicalis [9] = assay: Antifungal activity against Candida tropicalis assessed as growth inhibition after 96 hr by agar dilution method
Shigella dysenteriae [10] = assay: Antibacterial activity against Shigella dysenteriae 15 assessed as growth inhibition at MIC after 24 hr by agar dilution method
Pseudomonas aeruginosa [11] = assay: Antibacterial activity against Pseudomonas aeruginosa 71 assessed as growth inhibition at MIC after 24 hr by agar dilution method
Escherichia coli [12] = assay: Antibacterial activity against Escherichia coli 319 assessed as growth inhibition after 24 hr by agar dilution method
Micrococcus luteus [13] = assay: Antibacterial activity against Micrococcus luteus ATCC 9341 assessed as growth inhibition after 24 hr by agar dilution method
Pseudomonas aeruginosa [14] = assay: Antibacterial activity against Pseudomonas aeruginosa 71 assessed as growth inhibition after 24 hr by agar dilution method
Vibrio cholerae [15] = assay: Antibacterial activity against Vibrio cholerae 759 assessed as growth inhibition after 24 hr by agar dilution method
Cryptococcus neoformans [16] = assay: Antifungal activity against Cryptococcus neoformans assessed as growth inhibition after 96 hr by agar dilution method
Klebsiella pneumoniae [17] = assay: Antibacterial activity against Klebsiella pneumoniae J/I/4 assessed as growth inhibition at MIC after 24 hr by agar dilution method
Bacillus pumilus [18] = assay: Antibacterial activity against Bacillus pumilus 11778 assessed as growth inhibition at MIC after 24 hr by agar dilution method
Shigella dysenteriae [19] = assay: Antibacterial activity against Shigella dysenteriae 15 assessed as growth inhibition after 24 hr by agar dilution method
Bacillus pumilus [20] = assay: Antibacterial activity against Bacillus pumilus 11778 assessed as growth inhibition after 24 hr by agar dilution method
Candida albicans [21] = assay: Antifungal activity against Candida albicans assessed as growth inhibition at MIC after 96 hr by agar dilution method
Candida tropicalis [22] = assay: Antifungal activity against Candida tropicalis assessed as growth inhibition at MIC after 96 hr by agar dilution method
Aspergillus niger [23] = assay: Antifungal activity against Aspergillus niger assessed as growth inhibition at MIC after 96 hr by agar dilution method
Cryptococcus neoformans [24] = assay: Antifungal activity against Cryptococcus neoformans assessed as growth inhibition at MIC after 96 hr by agar dilution method
[25] = Staphylococcus aureus, 29737, 24 h
[26] = Pseudomonas aeruginosa, 71, 24 h

Cc1ccc2cccc(OCc3cc4ccccc4cc3COc3cccc4ccc(C)nc34)c2n1
diameter of the inhibition zone (DIZ) (Staphylococcus aureus [1]): 6.1 mm
diameter of the inhibition zone (DIZ) (Micrococcus luteus [2]): inactive
diameter of the inhibition zone (DIZ) (Escherichia coli [3]): 7 mm
MIC (Klebsiella pneumoniae [4]; J/I/4, 24 h): > 1000 µg/mL
diameter of the inhibition zone (DIZ) (Vibrio cholerae [5]): inactive
MIC (Aspergillus niger [6]): inactive
MIC (Staphylococcus aureus [7]; [25]): > 500 µg/mL
MIC (Candida albicans [8]): inactive
MIC (Candida tropicalis [9]): inactive
diameter of the inhibition zone (DIZ) (Shigella dysenteriae [10]): 8 mm
diameter of the inhibition zone (DIZ) (Pseudomonas aeruginosa [11]): inactive
MIC (Escherichia coli [12]; Escherichia coli, 319, 24 h): > 500 µg/mL
MIC (Micrococcus luteus [13]; ATCC 9341, 24 h): > 1000 µg/mL
MIC (Pseudomonas aeruginosa [14]; [26]): > 500 µg/mL
MIC (Vibrio cholerae [15]; Vibrio cholerae, 759, 24 h): > 500 µg/mL
MIC (Cryptococcus neoformans [16]): inactive
diameter of the inhibition zone (DIZ) (Klebsiella pneumoniae [17]): inactive
diameter of the inhibition zone (DIZ) (Bacillus pumilus [18]): 6 mm
MIC (Shigella dysenteriae [19]; Shigella dysenteriae, 15, 24 h): > 500 µg/mL
MIC (Bacillus pumilus [20]; Bacillus pumilus, 11778, 24 h): 64 µg/mL (≈ 136 µM)

c1cnc2c(OCc3nc4ccccc4nc3COc3cccc4cccnc34)cccc2c1
MIC (Klebsiella pneumoniae [4]): inactive
MIC (Aspergillus niger [6]): inactive
MIC (Staphylococcus aureus [7]): inactive
MIC (Candida albicans [8]): inactive
MIC (Candida tropicalis [9]): inactive
MIC (Escherichia coli [12]): inactive
MIC (Micrococcus luteus [13]): inactive
MIC (Pseudomonas aeruginosa [14]): inactive
MIC (Vibrio cholerae [15]): inactive
MIC (Cryptococcus neoformans [16]): inactive
MIC (Shigella dysenteriae [19]): inactive
MIC (Bacillus pumilus [20]): inactive

OC(Cn1cncn1)(Cn1cncn1)c1ccc(F)cc1F [FLUCONAZOLE]
diameter of the inhibition zone (DIZ) (Candida albicans [21]): 10.2 mm
MIC (Aspergillus niger [6]): 10 µg/mL (≈ 32.7 µM)
MIC (Candida albicans [8]): 4 µg/mL (≈ 13.1 µM)
MIC (Candida tropicalis [9]): 8 µg/mL (≈ 26.1 µM)
diameter of the inhibition zone (DIZ) (Candida tropicalis [22]): 8.5 mm
MIC (Cryptococcus neoformans [16]): 8 µg/mL (≈ 26.1 µM)
diameter of the inhibition zone (DIZ) (Aspergillus niger [23]): 8.6 mm
diameter of the inhibition zone (DIZ) (Cryptococcus neoformans [24]): 8.5 mm

Clc1ccc(OCc2nc3ccccc3nc2COc2ccc(Cl)c3cccnc23)c2ncccc12
diameter of the inhibition zone (DIZ) (Staphylococcus aureus [1]): inactive
diameter of the inhibition zone (DIZ) (Candida albicans [21]): 7.8 mm
diameter of the inhibition zone (DIZ) (Micrococcus luteus [2]): 7 mm
diameter of the inhibition zone (DIZ) (Escherichia coli [3]): 8 mm
MIC (Klebsiella pneumoniae [4]; J/I/4, 24 h): > 500 µg/mL
diameter of the inhibition zone (DIZ) (Vibrio cholerae [5]): inactive
MIC (Aspergillus niger [6]): 1000 µg/mL (≈ 1950 µM)
MIC (Staphylococcus aureus [7]; [25]): > 500 µg/mL
MIC (Candida albicans [8]): 1000 µg/mL (≈ 1950 µM)
MIC (Candida tropicalis [9]): 1500 µg/mL (≈ 2920 µM)
diameter of the inhibition zone (DIZ) (Shigella dysenteriae [10]): 6 mm
diameter of the inhibition zone (DIZ) (Pseudomonas aeruginosa [11]): inactive
MIC (Escherichia coli [12]; Escherichia coli, 319, 24 h): 32 µg/mL (≈ 62.3 µM)
diameter of the inhibition zone (DIZ) (Candida tropicalis [22]): 7.5 mm
MIC (Micrococcus luteus [13]; ATCC 9341, 24 h): 32 µg/mL (≈ 62.3 µM)
MIC (Pseudomonas aeruginosa [14]; [26]): > 500 µg/mL
MIC (Vibrio cholerae [15]; Vibrio cholerae, 759, 24 h): > 500 µg/mL
MIC (Cryptococcus neoformans [16]): inactive
diameter of the inhibition zone (DIZ) (Klebsiella pneumoniae [17]): 6 mm
diameter of the inhibition zone (DIZ) (Bacillus pumilus [18]): 8 mm
diameter of the inhibition zone (DIZ) (Aspergillus niger [23]): 7.5 mm
MIC (Shigella dysenteriae [19]; Shigella dysenteriae, 15, 24 h): > 500 µg/mL
diameter of the inhibition zone (DIZ) (Cryptococcus neoformans [24]): inactive
MIC (Bacillus pumilus [20]; Bacillus pumilus, 11778, 24 h): 32 µg/mL (≈ 62.3 µM)

Clc1ccc(OCc2ccc(COc3ccc(Cl)c4cccnc34)cc2)c2ncccc12
MIC (Klebsiella pneumoniae [4]): inactive
MIC (Aspergillus niger [6]): inactive
MIC (Staphylococcus aureus [7]): inactive
MIC (Candida albicans [8]): inactive
MIC (Candida tropicalis [9]): inactive
MIC (Escherichia coli [12]): inactive
MIC (Micrococcus luteus [13]): inactive
MIC (Pseudomonas aeruginosa [14]): inactive
MIC (Vibrio cholerae [15]): inactive
MIC (Cryptococcus neoformans [16]): inactive
MIC (Shigella dysenteriae [19]): inactive
MIC (Bacillus pumilus [20]): inactive

c1cc(COc2cccc3cccnc23)cc(COc2cccc3cccnc23)c1
diameter of the inhibition zone (DIZ) (Candida albicans [21]): inactive
MIC (Klebsiella pneumoniae [4]): inactive
MIC (Aspergillus niger [6]): inactive
MIC (Staphylococcus aureus [7]): inactive
MIC (Candida albicans [8]): inactive
MIC (Candida tropicalis [9]): inactive
MIC (Escherichia coli [12]): inactive
diameter of the inhibition zone (DIZ) (Candida tropicalis [22]): inactive
MIC (Micrococcus luteus [13]): inactive
MIC (Pseudomonas aeruginosa [14]): inactive
MIC (Vibrio cholerae [15]): inactive
MIC (Cryptococcus neoformans [16]): inactive
diameter of the inhibition zone (DIZ) (Aspergillus niger [23]): inactive
MIC (Shigella dysenteriae [19]): inactive
diameter of the inhibition zone (DIZ) (Cryptococcus neoformans [24]): inactive
MIC (Bacillus pumilus [20]): inactive

Cc1ccc2cccc(OCc3nc4ccccc4nc3COc3cccc4ccc(C)nc34)c2n1
MIC (Klebsiella pneumoniae [4]): inactive
MIC (Aspergillus niger [6]): inactive
MIC (Staphylococcus aureus [7]): inactive
MIC (Candida albicans [8]): inactive
MIC (Candida tropicalis [9]): inactive
MIC (Escherichia coli [12]): inactive
MIC (Micrococcus luteus [13]): inactive
MIC (Pseudomonas aeruginosa [14]): inactive
MIC (Vibrio cholerae [15]): inactive
MIC (Cryptococcus neoformans [16]): inactive
MIC (Shigella dysenteriae [19]): inactive
MIC (Bacillus pumilus [20]): inactive
